Calls of active or inactive are those of the source. The rule behind the calls is not given here.
target: Influenza A virus M2 proton channel (A/TW/4845/1999 H1N1); assay: NMR binding screen, influenza A virus M2 proton channel, Kd (AID 1549); details: M2 protein

| SMILES | Kd |
| --- | --- |
| Cc1cc(C)cc(OC(=O)N2CCOCC2)c1 | > 4 mM (inactive) |
| Cc1nnc2sc(-c3ccco3)nn12 | > 4 mM (inactive) |
| O=C(O)CN1C(=O)c2cccc([N+](=O)[O-])c2C1=O | > 4 mM (inactive) |
| O=C1NC(=S)NC(=O)C1=Cc1ccncc1 | > 4 mM (inactive) |
| S=C=NCc1ccccc1 | > 4 mM (inactive) |
| CNC(=O)C1=NCCCc2cc(OC)c(OC)cc21 | > 4 mM (inactive) |
| C=C(C)[C@@H]1[C@H]2OC(=O)[C@@H]1[C@]1(O)C[C@H]3O[C@]34C(=O)O[C@H]2[C@]14C | > 4 mM (inactive) |
| O=c1[nH]c(=O)n(-c2ccc(F)cc2)c(O)c1/C=C1/C=CC=N1 | > 4 mM (inactive) |
| Cc1occc1C(=O)Nc1sccc1C(N)=O | > 4 mM (inactive) |
| CC(=O)O[C@H]1C[C@@H](OC(C)=O)C(C)(C)C2C[C@@H](O)[C@]3(C)C(CC[C@@]4(C)[C@H](c5ccoc5)OC(=O)[C@H]5O[C@]543)[C@]21C (stereo not given in full) | > 4 mM (inactive) |
| Nn1cnn2c(SCc3ccccc3)nnc12 | > 4 mM (inactive) |
| O=C(Nc1ccon1)c1ccc(Br)o1 | > 4 mM (inactive) |
| CCOc1nc(C)ccc1-c1noc(-c2ccncc2)n1 | > 4 mM (inactive) |
| Cc1cc(SCCF)n2ncnc2n1 | > 4 mM (inactive) |
| O=C(Nc1ccc(F)cc1F)c1ccco1 | > 4 mM (inactive) |
| O=C(O)C1CCCCN1Cc1ccccc1 (stereo not given) | > 4 mM (inactive) |
| Cc1nn(C)c2sc(CO)cc12 | > 4 mM (inactive) |
| S=c1oc(-c2ccncc2)nn1CCc1ccncc1 | > 4 mM (inactive) |
| O=c1ccc(=O)n(CN2CCc3ccccc3C2)[nH]1 | > 4 mM (inactive) |
| COC(=O)c1ccccc1NC(=O)c1cc[n+]([O-])cc1 | > 4 mM (inactive) |

| SMILES | Kd |
| --- | --- |
| CN(C)C(=O)Oc1ccc(-c2nnco2)cc1 | > 4 mM (inactive) |
| Cc1occc1C(=O)Nc1nccs1 | > 4 mM (inactive) |
| O=C(NCc1ccco1)c1ccc(=O)[nH]c1 | > 4 mM (inactive) |
| O=C(O)C1=Cc2ccccc2OC1 | > 4 mM (inactive) |
| NC(=O)CSc1ccccn1 | > 4 mM (inactive) |
| Cc1cccc(CSc2nncc(=O)[nH]2)c1 | > 4 mM (inactive) |
| COC(=O)CC1C(C)(C)C(OC(C)=O)[C@@H]2[C@@H](OC(C)=O)[C@]34O[C@@]2(O)[C@]1(C)C3CC[C@]1(C)C4=CC(=O)O[C@H]1c1ccoc1 (stereo not given in full) | > 4 mM (inactive) |
| OCc1nccn1Cc1ccccc1 | > 4 mM (inactive) |
| OCC(O)C(O)C(O)CO (stereo not given) | > 4 mM (inactive) |
| CCC(C)C(=O)c1c(O)c(C)c2oc3c(C)c(O)c(C(=O)C(C)CC)c(O)c3c2c1O (stereo not given) | > 4 mM (inactive) |
| O=C1CCC(c2cccs2)=NN1 | > 4 mM (inactive) |
| CSc1n[nH]c(NCc2ccccc2)n1 | > 4 mM (inactive) |
| COC(=O)c1cccc2cc[nH]c12 | > 4 mM (inactive) |
| O=c1c2ccccc2nc2n1CCCCN2 | > 4 mM (inactive) |
| NC(=O)c1cc(N)cc(C(N)=O)c1 | > 4 mM (inactive) |
| O=S(=O)(c1ccc(F)c(Cl)c1)N1CCCC1 | > 4 mM (inactive) |
| CC(=O)Nc1ccncc1NC(C)=O | > 4 mM (inactive) |
| Cn1[nH]c2nc3[nH]n(C)c(=O)c3c(-c3ccccc3)c2c1=O | > 4 mM (inactive) |
| O=c1[nH]cc(NC(=S)N2CCOCC2)c(=O)[nH]1 | > 4 mM (inactive) |
| Cn1c(C(=O)O)ccc1S(N)(=O)=O | > 4 mM (inactive) |

| SMILES | Kd |
| --- | --- |
| c1ccc(CSc2ncccn2)cc1 | > 4 mM (inactive) |
| Cc1cc(C)n(CC(=O)O)n1 | > 4 mM (inactive) |
| CC(=O)Nc1sccc1C(=O)NC(N)=O | > 4 mM (inactive) |
| CSc1ccc(S(=O)(=O)N2CCCC2)cc1 | > 4 mM (inactive) |
| O=C(O)c1cnc2n(c1=O)CCS2 | > 4 mM (inactive) |
| CC(C)(C)CC(=O)NC1=NCCS1 | > 4 mM (inactive) |
| O=C(O)CN1CCN(C2CCCC2)CC1 | > 4 mM (inactive) |
| Cc1csc2nc3ccccc3c(=O)n12 | > 4 mM (inactive) |
| C=CC(=O)N1CC2CC(C1)c1cccc(=O)n1C2 (stereo not given) | > 4 mM (inactive) |
| CC1CCN(C(=O)c2ccc(NS(C)(=O)=O)cc2)CC1 | > 4 mM (inactive) |
| Cc1ccccc1NC(=O)CC1SC(N)=NC1=O (stereo not given) | > 4 mM (inactive) |
| CCC(C)C(=O)O[C@@H]1C[C@@]2(C)[C@H](c3ccoc3)OC(=O)CC23OC2(C)O[C@]14[C@]1(C)[C@@H](CC(=O)OC)C5(C)CC1(O)[C@](O)(C5OC(=O)C1(C)OC1C)[C@@H](OC(C)=O)[C@]34O2 (stereo not given in full) | > 4 mM (inactive) |
| CCOC(=O)CSCC(=O)Nc1nccs1 | > 4 mM (inactive) |
| CC(=O)Nc1ccc(NC(=O)N2CCOCC2)cc1 | > 4 mM (inactive) |
| Cc1occc1C(=O)Nc1ccc(C(N)=O)cc1 | > 4 mM (inactive) |
| O=C(O)C1CSC(c2ccco2)N1 (stereo not given) | > 4 mM (inactive) |
| Oc1cccc(N2CCOCC2)c1 | > 4 mM (inactive) |
| NC(=O)c1ccccc1NC(=O)C1CC1 | > 4 mM (inactive) |
| CC(=O)Oc1ccccc1N1C(=O)C=CC1=O | > 4 mM (inactive) |
| COc1nc(C)ccc1-c1noc(-c2ccco2)n1 | > 4 mM (inactive) |

From PubChem BioAssay AID1549 (Sanford-Burnham Center for Chemical Genomics, 2009)
